Test results taken from the supplement of paper PMC11061612.

Columns and labels:
Assay in all cases: combination Emax (second highest fraction inhibited in the dose matrix, 72 h); higher = more inhibition; extreme values may be limits of the assay
H4 (Low Grade Glioma) = system: H4 (Low Grade Glioma)
In short: (§1)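 Bliss excess equals the observed combination effect minus the expected value EA + EB − EA·EB, where EA and EB are the effects of each agent alone. Combination Emax is the second-highest inhibition within the matrix. Inhibition was scaled from CellTiter-Glo 2.0 luminescence, with 0 set by vehicle wells and 1 by blank wells, after 72 hours of two-drug dosing of cells plated in 1536-well plates.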

[1] = system: SW948 (Colorectal Carcinoma)
In short: as §1

[2] = system: TYK-nu (Ovarian Carcinoma)
In short: as §1

[3] = system: SK-UT-1 (Other Solid Carcinomas)
In short: as §1

[4] = system: SKN-3 (Head and Neck Carcinoma)
In short: as §1

[5] = system: YT (Other Blood Carcinomas)
In short: as §1

[6] = system: SW48 (Colorectal Carcinoma)
In short: as §1

[7] = system: 647-V (Bladder Carcinoma)
In short: as §1

D-392MG (Glioblastoma) = system: D-392MG (Glioblastoma)
In short: as §1

Saos-2 (Osteosarcoma) = system: Saos-2 (Osteosarcoma)
In short: as §1

[8] = system: ETK-1 (Biliary Tract Carcinoma)
In short: as §1

EW-22 (Ewing's Sarcoma) = system: EW-22 (Ewing's Sarcoma)
In short: as §1

[9] = system: SNU-61 (Colorectal Carcinoma)
In short: as §1

[10] = system: CAL-39 (Other Solid Carcinomas)
In short: as §1

[11] = system: WSU-DLCL2 (B-Cell Non-Hodgkin's Lymphoma)
In short: as §1

[12] = system: DOK (Oral Cavity Carcinoma)
In short: as §1

MCF7 (Breast Carcinoma) = system: MCF7 (Breast Carcinoma)
In short: as §1

CS1 (Chondrosarcoma) = system: CS1 (Chondrosarcoma)
In short: as §1

[13] = system: SNG-M (Endometrial Carcinoma)
In short: as §1

For `C[C@@H](c1ccc2nccn2c1)n1nnc2ncc(-c3cnn(C)c3)nc21` [Savolitinib] + Cc1c2c(nn1C)CSCc1cc(n(C)n1)CSc1cc(c3ccccc3c1)OCCCc1c(C(=O)O)n(C)c3c-2c(Cl)ccc13 [AZD5991] (first compound max 1 µM, 7x7, partner max 1 µM), the “combination Emax” value (H4 (Low Grade Glioma)) was 0.298, the “combination Emax” value [1] was 0.215 and the “combination Emax” value [2] was 0.295. The “combination Emax” value [3] was 0.174, the “combination Emax” value [4] was 0.216 and the “combination Emax” value [5] was 1. For the same compound, the “combination Emax” value [6] was 0.24, the “combination Emax” value [7] was 0.233 and the “combination Emax” value (D-392MG (Glioblastoma)) was 0.31. The “combination Emax” value (Saos-2 (Osteosarcoma)) was 0.229, the “combination Emax” value [8] was 0.141 and the “combination Emax” value (EW-22 (Ewing's Sarcoma)) was 0.271. The “combination Emax” value [9] was 0.151, the “combination Emax” value [10] was 0.264 and the “combination Emax” value [11] was 0.985. For the same compound, the “combination Emax” value [12] was 0.372, the “combination Emax” value (MCF7 (Breast Carcinoma)) was 0.49 and the “combination Emax” value (CS1 (Chondrosarcoma)) was 0.266. The “combination Emax” value [13] was 0.32.

`COc1nnc2ccc(N3CCC(c4ccc(OCCN5CCN(C)C(=O)[C@H]5C)cc4)CC3)nn12` [AZD5153] + Cc1c2c(nn1C)CSCc1cc(n(C)n1)CSc1cc(c3ccccc3c1)OCCCc1c(C(=O)O)n(C)c3c-2c(Cl)ccc13 [AZD5991] (first compound max 1 µM, 7x7, partner max 1 µM) was tested, and the “combination Emax” value (H4 (Low Grade Glioma)) was 0.888, the “combination Emax” value [1] was 0.573 and the “combination Emax” value [2] was 0.646. For the same compound, the “combination Emax” value [3] was 0.653, the “combination Emax” value [4] was 0.6 and the “combination Emax” value [5] was 1. The “combination Emax” value [6] was 0.711, the “combination Emax” value [7] was 0.587 and the “combination Emax” value (D-392MG (Glioblastoma)) was 0.541. The “combination Emax” value (Saos-2 (Osteosarcoma)) was 0.835, the “combination Emax” value [8] was 0.513 and the “combination Emax” value (EW-22 (Ewing's Sarcoma)) was 0.888. For the same compound, the “combination Emax” value [9] was 0.452, the “combination Emax” value [10] was 0.905 and the “combination Emax” value [11] was 1. The “combination Emax” value [12] was 0.914, the “combination Emax” value (MCF7 (Breast Carcinoma)) was 0.769 and the “combination Emax” value (CS1 (Chondrosarcoma)) was 0.38. For the same compound, the “combination Emax” value [13] was 0.639.

In the case of `COc1nnc2ccc(N3CCC(c4ccc(OCCN5CCN(C)C(=O)[C@H]5C)cc4)CC3)nn12` [AZD5153] + CCN(CCO)CCCOc1ccc2c(Nc3cc(CC(=O)Nc4cccc(F)c4)[nH]n3)ncnc2c1 [AZD2811] (first compound max 1 µM, 7x7, partner max 1 µM), the “combination Emax” value (H4 (Low Grade Glioma)) is reported as 0.668, the “combination Emax” value [1] is reported as 0.65 and the “combination Emax” value [2] is reported as 0.657. For the same compound, the “combination Emax” value [3] was 0.658, the “combination Emax” value [4] was 0.462 and the “combination Emax” value [5] was 0.666. The “combination Emax” value [6] was 0.912, the “combination Emax” value [7] was 0.545 and the “combination Emax” value (D-392MG (Glioblastoma)) was 0.456. For the same compound, the “combination Emax” value (Saos-2 (Osteosarcoma)) was 0.601, the “combination Emax” value [8] was 0.463 and the “combination Emax” value (EW-22 (Ewing's Sarcoma)) was 0.787. The “combination Emax” value [9] was 0.429, the “combination Emax” value [10] was 0.691 and the “combination Emax” value [11] was 0.942. The “combination Emax” value [12] was 0.544, the “combination Emax” value (MCF7 (Breast Carcinoma)) was 0.653 and the “combination Emax” value (CS1 (Chondrosarcoma)) was 0.46. The “combination Emax” value [13] was 0.502.

`COc1cc2ncnc(Nc3ccc(F)c(Cl)c3)c2cc1OCCCN1CCOCC1` [Gefitinib] + CC(C)n1c(=O)n(C)c2cnc3cc(F)c(-c4ccc(OCCCN5CCCCC5)nc4)cc3c21 [AZD1390] (first compound max 10 µM, 7x7, partner max 0.3 µM) was tested, and the “combination Emax” value (H4 (Low Grade Glioma)) was 0.121, the “combination Emax” value [1] was 0.162 and the “combination Emax” value [2] was 0.197. For the same compound, the “combination Emax” value [3] was 0.0993, the “combination Emax” value [4] was 0.236 and the “combination Emax” value [5] was 0.185. The “combination Emax” value [6] was 0.399, the “combination Emax” value [7] was 0.0854 and the “combination Emax” value (D-392MG (Glioblastoma)) was 0.084. For the same compound, the “combination Emax” value (Saos-2 (Osteosarcoma)) was 0.184, the “combination Emax” value [8] was 0.576 and the “combination Emax” value (EW-22 (Ewing's Sarcoma)) was 0.244. For the same compound, the “combination Emax” value [9] was 0.18, the “combination Emax” value [10] was 0.833 and the “combination Emax” value [11] was 0.128. For the same compound, the “combination Emax” value [12] was 0.382, the “combination Emax” value (MCF7 (Breast Carcinoma)) was 0.0973 and the “combination Emax” value (CS1 (Chondrosarcoma)) was 0.201. For the same compound, the “combination Emax” value [13] was 0.229.

In the case of `Cn1cnc2c(F)c(Nc3ccc(Br)cc3Cl)c(C(=O)NOCCO)cc21` [Selumetinib] + CCN(CCO)CCCOc1ccc2c(Nc3cc(CC(=O)Nc4cccc(F)c4)[nH]n3)ncnc2c1 [AZD2811] (first compound max 10 µM, 7x7, partner max 1 µM), the “combination Emax” value (H4 (Low Grade Glioma)) is reported as 0.306, the “combination Emax” value [1] is reported as 0.785 and the “combination Emax” value [2] is reported as 0.554. For the same compound, the “combination Emax” value [3] was 0.328, the “combination Emax” value [4] was 0.27 and the “combination Emax” value [5] was 0.229. For the same compound, the “combination Emax” value [6] was 0.989, the “combination Emax” value [7] was 0.394 and the “combination Emax” value (D-392MG (Glioblastoma)) was 0.197. The “combination Emax” value (Saos-2 (Osteosarcoma)) was 0.472, the “combination Emax” value [8] was 0.158 and the “combination Emax” value (EW-22 (Ewing's Sarcoma)) was 0.695. The “combination Emax” value [9] was 0.486, the “combination Emax” value [10] was 0.72 and the “combination Emax” value [11] was 0.127. For the same compound, the “combination Emax” value [12] was 0.633, the “combination Emax” value (MCF7 (Breast Carcinoma)) was 0.191 and the “combination Emax” value (CS1 (Chondrosarcoma)) was 0.266. The “combination Emax” value [13] was 0.261.

In the case of `CN(C)CCCOc1ccc(-c2ccc3ncc4c(c3c2)n(C2CCOCC2)c(=O)n4C)cn1` [AZD0156] + O=C(c1cc(Cc2n[nH]c(=O)c3ccccc23)ccc1F)N1CCN(C(=O)C2CC2)CC1 [Olaparib] (first compound max 3 µM, partner max 3 µM), the “combination Emax” value (H4 (Low Grade Glioma)) is reported as 0.536, the “combination Emax” value [1] is reported as 0.252 and the “combination Emax” value [2] is reported as 0.354. For the same compound, the “combination Emax” value [3] was 0.257, the “combination Emax” value [4] was 0.283 and the “combination Emax” value [5] was 0.212. The “combination Emax” value [7] was 0.257, the “combination Emax” value (D-392MG (Glioblastoma)) was 0.131 and the “combination Emax” value (Saos-2 (Osteosarcoma)) was 0.218. The “combination Emax” value [8] was 0.329, the “combination Emax” value (EW-22 (Ewing's Sarcoma)) was 0.872 and the “combination Emax” value [10] was 0.331. For the same compound, the “combination Emax” value [11] was 0.89, the “combination Emax” value [12] was 0.361 and the “combination Emax” value (MCF7 (Breast Carcinoma)) was 0.324. The “combination Emax” value (CS1 (Chondrosarcoma)) was 0.296 and the “combination Emax” value [13] was 0.0957.

With `Cc1nc(-c2cn3c(n2)-c2ccc(-c4cnn(C(C)(C)C(N)=O)c4)cc2OCC3)n(C(C)C)n1` [Taselisib] + O=C(Nc1ccc2[nH]nc(-c3ccncc3)c2c1)[C@@H]1CCN(CC(=O)N2CCN(c3ccc(-c4ncccn4)cc3)CC2)C1 [SCH772984] (first compound max 10 µM, 7x7, partner max 5 µM) the “combination Emax” value (H4 (Low Grade Glioma)) was 0.68, the “combination Emax” value [1] was 0.964 and the “combination Emax” value [3] was 0.485. The “combination Emax” value [5] was 0.597, the “combination Emax” value [6] was 0.942 and the “combination Emax” value (D-392MG (Glioblastoma)) was 0.799. The “combination Emax” value (Saos-2 (Osteosarcoma)) was 0.703, the “combination Emax” value (EW-22 (Ewing's Sarcoma)) was 0.719 and the “combination Emax” value [10] was 1. For the same compound, the “combination Emax” value [11] was 0.961, the “combination Emax” value [12] was 1 and the “combination Emax” value (CS1 (Chondrosarcoma)) was 0.744. For the same compound, the “combination Emax” value [13] was 0.76.
